Measurements: PubChem BioAssay AID977605 (Broad Institute, 2014)
Activity calls are given as the source filed them.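 Rule for the calls: active = fitted curve reaches 40% activation below the top valid tested dose, in every test run; inconclusive = test runs disagree on the call; inactive = the rest, including effects opposite to the expected direction.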

Experiment: E-selectin inducers in HUVECs, dose response, imaging, HUVEC, cherry-picked samples (AID 977605);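 note: signal is the share of imaged cells scored positive for E-selectin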
Conditions: HUVEC E-selectin immunostaining, percent of TNF-alpha response over vehicle

## CCNC(=O)C[C@@H]1CC[C@@H]2[C@@H](COc3ccc(NC(=O)Nc4cccc(OC)c4)cc3C(=O)N2C)O1
At 21 µM (top of the series)
  activation: 0.153% (inactive)

## COc1ccc(C(=O)Nc2ccc3c(c2)OCCO3)cc1[N+](=O)[O-]
At 19.5 µM (top of the series)
  activation: 0.055% (inactive)

## C[C@H]1CN([C@@H](C)CO)C(=O)Cc2cc(NS(=O)(=O)c3ccc(F)cc3)ccc2O[C@@H]1CN(C)S(=O)(=O)c1ccc(Cl)cc1
At 19.5 µM (top of the series)
  activation: -0.047% (inactive)

## C[C@H]1CN([C@@H](C)CO)C(=O)c2cc(NC(=O)Nc3ccccc3)ccc2O[C@@H]1CN(C)C(=O)Nc1ccc(C(F)(F)F)cc1
At 21 µM (top of the series)
  activation: 0.08% (inactive)

## CNS(=O)(=O)c1ccc(NC(=O)C2CC(=O)N(c3ccc(Cl)cc3)C2)cc1 (stereo not given)
At 19.5 µM (top of the series)
  activation: -0.269% (inactive)

## C[C@@H]1CN([C@H](C)CO)C(=O)Cc2cc(NC(=O)C3CC3)ccc2O[C@@H]1CN(C)Cc1ccc2c(c1)OCO2
At 19.5 µM (top of the series)
  activation: -0.006% (inactive)

## CCOc1ccc(NC(=O)CNC(=O)c2ccc(OC)cc2)cc1
At 19.5 µM (top of the series)
  activation: 0.033% (inactive)

## Brc1cnc2nc(SCc3nc4ccccc4[nH]3)[nH]c2c1
At 19.5 µM (top of the series)
  activation: 1.19% (inactive)

## CCn1c(CCC(=O)O)nc2cc(S(=O)(=O)N3CCOCC3)ccc21
At 19.5 µM (top of the series)
  activation: -0.184% (inactive)

## O=C(O)CC1C(=O)NCCN1Cc1cccs1 (stereo not given)
At 19.5 µM (top of the series)
  activation: -0.112% (inactive)

## C[C@H]1CN([C@@H](C)CO)C(=O)Cc2cc(NC(=O)Nc3ccc(F)cc3)ccc2O[C@H]1CN(C)C(=O)Nc1ccc(C(F)(F)F)cc1
At 19.5 µM (top of the series)
  activation: 0.219% (inactive)

## C[C@@H]1CN([C@H](C)CO)C(=O)c2cc(NC(=O)Cc3cn(C)c4ccccc34)ccc2O[C@H]1CN(C)Cc1ccc(Cl)c(Cl)c1
At 19.5 µM (top of the series)
  activation: 4.38% (inactive)

## C[C@H](CO)N1C[C@H](C)[C@H](CN(C)Cc2ccncc2)Oc2ccc(NC(=O)CCC(F)(F)F)cc2CC1=O
At 19.5 µM (top of the series)
  activation: -0.107% (inactive)

## COc1ccc(NC(=O)N(C)C[C@@H]2Oc3ccc(NC(=O)c4ccncc4)cc3CC(=O)N([C@@H](C)CO)C[C@H]2C)cc1
At 19.5 µM (top of the series)
  activation: -0.088% (inactive)

## C[C@@H]1CN([C@@H](C)CO)C(=O)c2cc(NC(=O)Cn3cnnn3)ccc2O[C@H]1CN(C)Cc1ccc(Oc2ccccc2)cc1
At 19.5 µM (top of the series)
  activation: 6.68% (inactive)

## C[C@@H]1CN([C@H](C)CO)C(=O)c2cc(NC(=O)CCCCCC(=O)Nc3ccccc3N)ccc2O[C@@H]1CN(C)C(=O)Nc1ccc2c(c1)OCO2
At 19.5 µM (top of the series)
  activation: -0.103% (inactive)

## C[C@H]1CN([C@@H](C)CO)C(=O)c2cccc(NS(C)(=O)=O)c2O[C@@H]1CN(C)Cc1ccc(Oc2ccccc2)cc1
At 19.5 µM (top of the series)
  activation: 0.027% (inactive)

## C[C@H]1CN([C@@H](C)CO)C(=O)Cc2cc(NC(=O)c3ccncc3)ccc2O[C@H]1CN(C)Cc1ccc(C(=O)Nc2ccccc2N)cc1
At 19.5 µM (top of the series)
  activation: 6.93% (inactive)

## COc1ccc(NC(=O)Nc2cccc3c2O[C@H](CN(C)C(=O)NC2CCCCC2)[C@H](C)CN([C@H](C)CO)C3=O)cc1
At 19.5 µM (top of the series)
  activation: 0.915% (inactive)

## Cc1ccccc1N(CC(=O)NC1CCCCC1)C(=O)CNC(=O)c1cccs1
At 19.5 µM (top of the series)
  activation: 0.744% (inactive)

## Cc1cc(C)nc(NC(N)=NC(C)c2ccccc2)n1 (stereo not given)
At 19.5 µM (top of the series)
  activation: -0.07% (inactive)

## Cc1ccc(S(=O)(=O)N(C)C[C@@H]2Oc3c(NS(=O)(=O)c4ccc(Cl)cc4)cccc3C(=O)N([C@@H](C)CO)C[C@H]2C)cc1
At 19.5 µM (top of the series)
  activation: -0.172% (inactive)

## C[C@H](CO)N1C[C@H](C)[C@@H](CN(C)C)Oc2ccc(NC(=O)CCCN(C)C)cc2CC1=O
At 19.5 µM (top of the series)
  activation: -0.172% (inactive)

## C[C@H](CO)N1C[C@H](C)[C@@H](CN(C)Cc2ccc(Oc3ccccc3)cc2)Oc2ccc(NS(C)(=O)=O)cc2CC1=O
At 19.5 µM (top of the series)
  activation: 0.311% (inactive)

## CC(C)NC(=O)Nc1ccc2c(c1)CC(=O)N([C@@H](C)CO)C[C@H](C)[C@H](CN(C)Cc1ccc(C(=O)O)cc1)O2
At 19.5 µM (top of the series)
  activation: 0.025% (inactive)

## C[C@H]1CN([C@@H](C)CO)C(=O)c2cccc(NS(=O)(=O)c3cn(C)cn3)c2O[C@@H]1CN(C)C(=O)Nc1ccc(F)cc1
At 21 µM (top of the series)
  activation: -0.136% (inactive)

## C[C@@H]1CN([C@@H](C)CO)C(=O)Cc2cc(NC(=O)Nc3ccc(F)cc3)ccc2O[C@H]1CN(C)S(=O)(=O)c1ccccc1
At 19.5 µM (top of the series)
  activation: -0.074% (inactive)

## CCn1c(SCC(=O)Nc2cccc(C)c2)nc2c(c1=O)SC(C)C2 (stereo not given)
At 19.5 µM (top of the series)
  activation: -0.269% (inactive)

## Cc1noc(C)c1NC(=O)Nc1ccc2c(c1)CC(=O)N([C@H](C)CO)C[C@@H](C)[C@H](CN(C)C(=O)Nc1ccc(F)cc1)O2
At 19.5 µM (top of the series)
  activation: -0.18% (inactive)

## CCOC(=O)c1cccc(NC(=O)c2cc(C)nn2-c2ccccc2)c1
At 19.5 µM (top of the series)
  activation: 0.657% (inactive)

## C[C@@H]1CN([C@@H](C)CO)S(=O)(=O)c2ccc(C#CC3CC3)cc2O[C@@H]1CN(C)Cc1cccnc1
At 19.5 µM (top of the series)
  activation: -0.068% (inactive)

## Cc1noc(C)c1S(=O)(=O)N(C)C[C@H]1Oc2ccc(NS(C)(=O)=O)cc2CC(=O)N([C@@H](C)CO)C[C@H]1C
At 19.5 µM (top of the series)
  activation: 0.259% (inactive)

## CCOC(=O)c1ccc(N(C(=O)c2ccco2)C(C(=O)NC2CCCCC2)c2ccncc2)cc1 (stereo not given)
At 19.5 µM (top of the series)
  activation: -0.129% (inactive)

## COc1cccc(CCC(=O)N2CCC(n3nccc3NC(=O)CC(C)C)CC2)c1
At 19.5 µM (top of the series)
  activation: -0.002% (inactive)

## CC1CCCC(C)N1C(=O)CSc1nc2c(c(=O)n(C)c(=O)n2C)n1C (stereo not given)
At 19.5 µM (top of the series)
  activation: -0.005% (inactive)

## CC(C)CC#Cc1ccc2c(c1)O[C@H](CN(C)C(=O)c1ccccc1)[C@H](C)CN([C@@H](C)CO)S2(=O)=O
At 19.5 µM (top of the series)
  activation: -0.183% (inactive)

## COc1ccc(C)cc1NC(=O)C(NCC(O)c1ccccc1)c1ccccc1 (stereo not given)
At 19.5 µM (top of the series)
  activation: -0.094% (inactive)

## COc1ccc(CN(C)C[C@@H]2Oc3ccc(NC(=O)Nc4ccc(F)cc4)cc3CC(=O)N([C@H](C)CO)C[C@@H]2C)cc1
At 19.5 µM (top of the series)
  activation: -0.068% (inactive)

## Cc1noc(C)c1S(=O)(=O)Nc1ccc2c(c1)C(=O)N([C@H](C)CO)C[C@@H](C)[C@@H](CN(C)Cc1ccc3c(c1)OCO3)O2
At 19.5 µM (top of the series)
  activation: -0.086% (inactive)

## C[C@H](NC(=O)C[C@H]1CC[C@H]2[C@H](COc3ccc(NS(=O)(=O)c4ccc(Cl)cc4)cc3C(=O)N2C)O1)c1ccccc1
At 21 µM (top of the series)
  activation: 0.192% (inactive)

## C[C@@H]1CN([C@@H](C)CO)C(=O)c2cc(NC(=O)Nc3ccc4c(c3)OCO4)ccc2O[C@H]1CN(C)Cc1ccc(-c2ccccc2)cc1
At 21 µM (top of the series)
  activation: 2.77% (inactive)

## C[C@H](CO)N1C[C@H](C)[C@H](CN(C)S(=O)(=O)c2ccc(Cl)cc2)Oc2ccc(NC(=O)Cc3ccccc3)cc2C1=O
At 19.5 µM (top of the series)
  activation: -0.076% (inactive)

## COc1ccc(CN(C)C[C@@H]2Oc3ccc(NC(=O)Nc4ccc(F)cc4)cc3CC(=O)N([C@@H](C)CO)C[C@@H]2C)cc1
At 19.5 µM (top of the series)
  activation: 0.025% (inactive)

## O=C(Nc1cccc(C(F)(F)F)c1)c1cc[n+]([O-])cc1
At 19.5 µM (top of the series)
  activation: 0.066% (inactive)

## CNC[C@H]1Oc2ccc(N(C)C)cc2C(=O)N([C@@H](C)CO)C[C@H]1C
At 19.5 µM (top of the series)
  activation: 0.27% (inactive)

## CC(C)NC(=O)N(C)C[C@@H]1Oc2ccc(NC(=O)Cn3cnnn3)cc2CC(=O)N([C@@H](C)CO)C[C@H]1C
At 19.5 µM (top of the series)
  activation: 0.965% (inactive)

## C[C@H]1CN([C@@H](C)CO)C(=O)c2cc(NS(=O)(=O)c3cn(C)cn3)ccc2O[C@@H]1CN(C)Cc1ccncc1
At 19.5 µM (top of the series)
  activation: -0.214% (inactive)

## C[C@@H]1CN([C@@H](C)CO)C(=O)Cc2cc(NS(=O)(=O)c3ccc(F)cc3)ccc2O[C@@H]1CN(C)S(=O)(=O)c1ccc(Cl)cc1
At 21 µM (top of the series)
  activation: -0.065% (inactive)

## C[C@H](CO)N1C[C@H](C)[C@@H](CN(C)S(=O)(=O)c2cccs2)Oc2ccc(NC(=O)CCN3CCOCC3)cc2C1=O
At 21 µM (top of the series)
  activation: -0.167% (inactive)

## O=S(=O)(NCc1csc(-c2cccs2)n1)c1ccc(Cl)cc1
At 19.5 µM (top of the series)
  activation: 0.045% (inactive)
